PubChem BioAssay (NCI)
Values joined by “and” are separate entries in the source; they are usually repeats but may differ in a detail not shown here. Equal entries are not always repeated.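 All cell lines were grown in 96-well plates and treated with compound for 48 hours. GI50 is the concentration that inhibits growth by half. TGI denotes the concentration required for complete inhibition of growth.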

Experiments:
Assay in all cases: DTP human tumour cell line panel, 48 h
HOP-92 NSCLC = test system: HOP-92 NSCLC
HOP-62 NSCLC = test system: HOP-62 NSCLC
786-0 renal = test system: 786-0 renal
SNB-75 CNS = test system: SNB-75 CNS
HOP-18 NSCLC = test system: HOP-18 NSCLC
DMS 114 small cell lung = test system: DMS 114 small cell lung
HT29 colon = test system: HT29 colon
CCRF-CEM leukemia = test system: CCRF-CEM leukemia
UO-31 renal = test system: UO-31 renal
SK-OV-3 ovarian = test system: SK-OV-3 ovarian
EKVX NSCLC = test system: EKVX NSCLC
SF-268 CNS = test system: SF-268 CNS
SN12C renal = test system: SN12C renal
SR leukemia = test system: SR leukemia
M19-MEL melanoma = test system: M19-MEL melanoma
OVCAR-3 ovarian = test system: OVCAR-3 ovarian
M14 melanoma = test system: M14 melanoma
NCI-H23 lung = test system: NCI-H23 lung
HCT-15 colon = test system: HCT-15 colon
A549 NSCLC = test system: A549 NSCLC
DLD-1 colon = test system: DLD-1 colon
KM20L2 colon = test system: KM20L2 colon
RPMI-8226 leukemia = test system: RPMI-8226 leukemia
OVCAR-8 ovarian = test system: OVCAR-8 ovarian
TK-10 renal = test system: TK-10 renal
A498 renal = test system: A498 renal
UACC-257 melanoma = test system: UACC-257 melanoma
NCI-H522 lung = test system: NCI-H522 lung
COLO 205 colon = test system: COLO 205 colon
ACHN renal = test system: ACHN renal
IGROV1 ovarian = test system: IGROV1 ovarian
SF-539 CNS = test system: SF-539 CNS
HCT-116 colon = test system: HCT-116 colon
MOLT-4 leukemia = test system: MOLT-4 leukemia
NCI-H460 lung = test system: NCI-H460 lung
NCI-H226 lung = test system: NCI-H226 lung
K-562 leukemia = test system: K-562 leukemia
SW-620 colon = test system: SW-620 colon
HL-60(TB) leukemia = test system: HL-60(TB) leukemia
SNB-19 CNS = test system: SNB-19 CNS
SF-295 CNS = test system: SF-295 CNS
RXF 393 renal = test system: RXF 393 renal
LOX IMVI melanoma = test system: LOX IMVI melanoma
KM12 colon = test system: KM12 colon
UACC-62 melanoma = test system: UACC-62 melanoma
OVCAR-4 ovarian = test system: OVCAR-4 ovarian
MALME-3M melanoma = test system: MALME-3M melanoma
SNB-78 CNS = test system: SNB-78 CNS
SK-MEL-28 melanoma = test system: SK-MEL-28 melanoma
DMS 273 small cell lung = test system: DMS 273 small cell lung
U251 CNS = test system: U251 CNS
LXFL 529 NSCLC = test system: LXFL 529 NSCLC
XF 498 CNS = test system: XF 498 CNS
SK-MEL-2 melanoma = test system: SK-MEL-2 melanoma
HCC-2998 colon = test system: HCC-2998 colon
CAKI-1 renal = test system: CAKI-1 renal
SK-MEL-5 melanoma = test system: SK-MEL-5 melanoma

C=C1CC[C@@H]2C(C)(C)C(O)CCC2(C)C1COc1ccc2ccc(=O)oc2c1 (some centres undefined)
TGI (HOP-92 NSCLC): 35.4 µM | TGI (HOP-62 NSCLC): 33.4 µM | TGI (786-0 renal): 42.2 µM | TGI (SNB-75 CNS): 32.2 µM | TGI (HOP-18 NSCLC): 35 µM | TGI (DMS 114 small cell lung): 28.2 µM | TGI (HT29 colon): 37.3 µM | TGI (CCRF-CEM leukemia): 49 µM | TGI (UO-31 renal): 29.4 µM | TGI (SK-OV-3 ovarian): 55.2 µM | TGI (EKVX NSCLC): 37.4 µM | TGI (SF-268 CNS): 36.7 µM | TGI (SN12C renal): 30 µM | TGI (SR leukemia): 56.9 µM | TGI (M19-MEL melanoma): 32.5 µM | TGI (OVCAR-3 ovarian): 32.6 µM | TGI (M14 melanoma): 33.2 µM | TGI (NCI-H23 lung): 34.6 µM | TGI (HCT-15 colon): 28.3 µM | TGI (A549 NSCLC): 32.6 µM | TGI (DLD-1 colon): 34.4 µM | TGI (KM20L2 colon): 40.5 µM | TGI (RPMI-8226 leukemia): 33.8 µM | TGI (OVCAR-8 ovarian): 33.5 µM | TGI (TK-10 renal): 36.9 µM | TGI (A498 renal): 56.8 µM | TGI (UACC-257 melanoma): 32.6 µM | TGI (NCI-H522 lung): 29.8 µM | TGI (COLO 205 colon): 28.1 µM | TGI (ACHN renal): 30.5 µM | TGI (IGROV1 ovarian): 33.5 µM | TGI (SF-539 CNS): 31.3 µM | TGI (HCT-116 colon): 28.8 µM | TGI (MOLT-4 leukemia): 39.8 µM | TGI (NCI-H460 lung): 23.5 µM | TGI (NCI-H226 lung): 33.3 µM | TGI (K-562 leukemia): 44.1 µM | TGI (SW-620 colon): 42.4 µM | TGI (HL-60(TB) leukemia): 36.3 µM | TGI (SNB-19 CNS): 37.4 µM | TGI (SF-295 CNS): 29.7 µM | TGI (RXF 393 renal): 35.5 µM | TGI (LOX IMVI melanoma): 32 µM | TGI (KM12 colon): 29.8 µM | TGI (UACC-62 melanoma): 29.4 µM | TGI (OVCAR-4 ovarian): 29.7 µM | TGI (MALME-3M melanoma): 32.1 µM | TGI (SNB-78 CNS): 39.2 µM | TGI (SK-MEL-28 melanoma): 32.2 µM | TGI (DMS 273 small cell lung): 27.3 µM | TGI (U251 CNS): 34.3 µM | TGI (LXFL 529 NSCLC): 23.7 µM | TGI (XF 498 CNS): 29.6 µM | TGI (SK-MEL-2 melanoma): 32 µM | TGI (HCC-2998 colon): 34.8 µM

COc1cc(C2c3cc4c(cc3[C@@H](NCCCN3CCCC3=O)C3COC(=O)[C@H]23)OCO4)cc(OC)c1O (some centres undefined)
TGI (HOP-92 NSCLC): 71.1 µM and > 17.5 µM | GI50 (HOP-62 NSCLC): 5.45 µM and 0.712 µM | TGI (HOP-62 NSCLC): 34.3 µM and > 17.5 µM | TGI (786-0 renal): 60.4 µM and > 17.5 µM | TGI (SNB-75 CNS): 6.81 µM | TGI (HOP-18 NSCLC): > 100 µM | GI50 (DMS 114 small cell lung): 2.89 µM and 0.701 µM | TGI (DMS 114 small cell lung): 9.46 µM and > 17.5 µM | TGI (HT29 colon): > 100 µM | TGI (CCRF-CEM leukemia): > 100 µM | TGI (UO-31 renal): 43.7 µM and > 17.5 µM | TGI (SK-OV-3 ovarian): 39.4 µM | TGI (EKVX NSCLC): > 100 µM | GI50 (SF-268 CNS): 9.24 µM and 1.58 µM | TGI (SF-268 CNS): > 100 µM | TGI (CAKI-1 renal): > 100 µM | TGI (SN12C renal): 80.9 µM and > 17.5 µM | TGI (SR leukemia): > 100 µM | TGI (M19-MEL melanoma): > 100 µM | TGI (OVCAR-3 ovarian): > 100 µM | GI50 (SK-MEL-5 melanoma): 4.21 µM and 0.526 µM | TGI (SK-MEL-5 melanoma): 33.5 µM and > 17.5 µM | TGI (M14 melanoma): > 100 µM | GI50 (NCI-H23 lung): 5.27 µM | TGI (NCI-H23 lung): 32.2 µM | TGI (HCT-15 colon): > 100 µM | GI50 (A549 NSCLC): 6.23 µM and 1.01 µM | TGI (A549 NSCLC): 40 µM and > 17.5 µM | TGI (DLD-1 colon): > 100 µM | TGI (KM20L2 colon): > 100 µM | TGI (RPMI-8226 leukemia): > 100 µM | TGI (OVCAR-8 ovarian): > 100 µM | TGI (TK-10 renal): > 100 µM | GI50 (NCI-H522 lung): 5.65 µM | TGI (NCI-H522 lung): 84.3 µM | TGI (COLO 205 colon): > 100 µM | TGI (ACHN renal): 16.5 µM | TGI (IGROV1 ovarian): > 100 µM | GI50 (SF-539 CNS): 3.65 µM | TGI (SF-539 CNS): 21.4 µM | TGI (HCT-116 colon): > 100 µM | TGI (MOLT-4 leukemia): > 100 µM | GI50 (NCI-H460 lung): 1.54 µM and 0.58 µM | TGI (NCI-H460 lung): 15.7 µM and > 17.5 µM | GI50 (NCI-H226 lung): 3.38 µM and 1.35 µM | TGI (NCI-H226 lung): 23 µM and 9.53 µM | TGI (K-562 leukemia): > 100 µM | TGI (SW-620 colon): > 100 µM | GI50 (SNB-19 CNS): 38 µM and > 17.5 µM | TGI (SNB-19 CNS): > 100 µM | TGI (SF-295 CNS): > 100 µM | TGI (RXF 393 renal): > 100 µM | GI50 (LOX IMVI melanoma): 8.13 µM and 0.813 µM | TGI (LOX IMVI melanoma): 33.7 µM and > 17.5 µM | TGI (KM12 colon): > 100 µM | GI50 (UACC-62 melanoma): 4.03 µM and 0.677 µM | TGI (UACC-62 melanoma): 26 µM and > 17.5 µM | GI50 (OVCAR-4 ovarian): > 100 µM | TGI (OVCAR-4 ovarian): > 100 µM | GI50 (MALME-3M melanoma): 11 µM | TGI (MALME-3M melanoma): > 100 µM | TGI (SK-MEL-28 melanoma): > 100 µM | GI50 (DMS 273 small cell lung): 3.59 µM and 0.476 µM | TGI (DMS 273 small cell lung): 21.3 µM and > 17.5 µM | TGI (U251 CNS): 63 µM and > 17.5 µM | TGI (LXFL 529 NSCLC): > 100 µM | TGI (XF 498 CNS): > 100 µM | TGI (SK-MEL-2 melanoma): > 100 µM | TGI (HCC-2998 colon): 85.7 µM
